This passage reports IC50 and GI50 results from patent US20250136595A1, “ACYLATED HETEROCYCLIC QUINAZOLINE DERIVATIVES AS INHIBITORS OF ERBB2” (Enliven Inc., priority 2022, published 2025).

Experiment [1] addresses T1, phosphorylated EGFR (pEGFR) (Homo sapiens, UniProt P00533).
T1 construct: performed to measure phosphorylated EGFR levels using A431 cells; endogenous in cells; host or cells: A431
The experiment can be described thus: Detection of phosphorylated EGFR (pEGFR) in EGF-stimulated A431 cells (AlphaLISA). It counts as cell-based. Conditions: A431 cells (10% FBS), 4 hours incubation, EGF 30 ng/mL for 10 minutes. The method in brief: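 Cells in 10% FBS treated with compound 4 h at 37° C., then stimulated 10 min with 30 ng/mL EGF, lysed, and pEGFR measured by AlphaLISA. Inhibition normalized to DMSO and staurosporine controls; IC50 from four-parameter logistic fit.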
(In general: In Alpha technology, singlet oxygen from a donor bead excites a nearby acceptor bead.)

Experiment [2] concerns the target T2, phosphorylated ERBB2 (pERBB2) (Homo sapiens, UniProt P04626).
T2 construct: endogenous in cells; host or cells: BT-474
The experiment can be described thus: Detection of phosphorylated ERBB2 (pERBB2) by ELISA in BT-474 cells. The class given is cell-based. Conditions: four hour incubation with compound. Summed up: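 BT-474 cells treated 4 h at 37 °C, 5% CO2 with four-fold dilutions (10 μM to 0.01 nM final). Lysates analysed by ELISA for pERBB2, TMB read at OD 450 nm. % relative activity normalised to no-cell (low) and 0.1% DMSO-treated (high) controls.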

Experiment [3] has as its target Ba/F3 ERBB2 YVMA (Homo sapiens, UniProt P04626, DUP772-775, cells depend on it). The experiment in a line: Cell viability assay (CellTiter Glo) in Ba/F3 cells engineered to express ERBB2 YVMA. It counts as cell-based, mouse. Conditions: Ba/F3 cells expressing human ERBB2 YVMA mutant, 72 hours, % viability, read-out: Ba/F3 ERBB2 YVMA IC50. The method in brief:
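IL-3-independent mouse Ba/F3 line stably transduced with human ERBB2 YVMA, seeded at 3000 cells/well, exposed to serially diluted compound (≤0.1% DMSO) for 72 h at 37° C. ATP read by CellTiter Glo luminescence, normalised to DMSO and media-only controls; sigmoidal nonlinear regression fit.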
For orientation: Cellular ATP, detected with luciferase, serves as a proxy for viable cell number.

Some results are limits rather than exact numbers.

Sequence of Ba/F3 ERBB2 YVMA (P04626 with tags, fused parts or gaps DUP772-775): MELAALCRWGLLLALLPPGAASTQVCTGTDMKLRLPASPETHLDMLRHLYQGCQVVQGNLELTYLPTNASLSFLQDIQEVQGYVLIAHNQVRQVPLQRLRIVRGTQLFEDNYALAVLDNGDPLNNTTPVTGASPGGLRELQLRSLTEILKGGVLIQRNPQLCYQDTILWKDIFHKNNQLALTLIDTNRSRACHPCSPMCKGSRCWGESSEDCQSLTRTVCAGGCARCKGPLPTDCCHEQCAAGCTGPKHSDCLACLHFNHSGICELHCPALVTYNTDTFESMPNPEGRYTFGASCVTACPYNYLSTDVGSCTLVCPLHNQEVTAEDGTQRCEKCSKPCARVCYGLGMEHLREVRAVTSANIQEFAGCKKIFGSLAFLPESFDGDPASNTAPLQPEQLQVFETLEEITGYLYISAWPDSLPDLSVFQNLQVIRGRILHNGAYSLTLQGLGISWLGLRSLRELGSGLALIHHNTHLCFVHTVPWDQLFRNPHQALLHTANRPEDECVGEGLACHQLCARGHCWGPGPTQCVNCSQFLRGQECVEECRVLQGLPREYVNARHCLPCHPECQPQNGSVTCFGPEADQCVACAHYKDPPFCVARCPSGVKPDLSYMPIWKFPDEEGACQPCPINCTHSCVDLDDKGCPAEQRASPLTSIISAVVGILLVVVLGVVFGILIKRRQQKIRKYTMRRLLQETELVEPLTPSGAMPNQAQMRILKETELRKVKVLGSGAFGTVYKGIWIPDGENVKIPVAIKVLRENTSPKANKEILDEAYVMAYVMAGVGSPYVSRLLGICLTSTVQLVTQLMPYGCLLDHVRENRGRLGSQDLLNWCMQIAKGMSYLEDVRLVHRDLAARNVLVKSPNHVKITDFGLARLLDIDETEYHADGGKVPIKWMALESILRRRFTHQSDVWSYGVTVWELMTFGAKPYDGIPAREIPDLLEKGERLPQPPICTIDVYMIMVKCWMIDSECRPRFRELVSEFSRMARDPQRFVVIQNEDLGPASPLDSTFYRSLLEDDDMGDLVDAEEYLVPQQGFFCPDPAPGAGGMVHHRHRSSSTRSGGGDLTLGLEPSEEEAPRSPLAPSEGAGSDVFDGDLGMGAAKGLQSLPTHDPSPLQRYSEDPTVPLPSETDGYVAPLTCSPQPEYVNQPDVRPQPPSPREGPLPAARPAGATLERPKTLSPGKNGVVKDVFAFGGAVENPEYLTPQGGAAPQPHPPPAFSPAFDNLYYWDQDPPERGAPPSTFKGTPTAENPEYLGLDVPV
T1 sequence (P00533 25-1210): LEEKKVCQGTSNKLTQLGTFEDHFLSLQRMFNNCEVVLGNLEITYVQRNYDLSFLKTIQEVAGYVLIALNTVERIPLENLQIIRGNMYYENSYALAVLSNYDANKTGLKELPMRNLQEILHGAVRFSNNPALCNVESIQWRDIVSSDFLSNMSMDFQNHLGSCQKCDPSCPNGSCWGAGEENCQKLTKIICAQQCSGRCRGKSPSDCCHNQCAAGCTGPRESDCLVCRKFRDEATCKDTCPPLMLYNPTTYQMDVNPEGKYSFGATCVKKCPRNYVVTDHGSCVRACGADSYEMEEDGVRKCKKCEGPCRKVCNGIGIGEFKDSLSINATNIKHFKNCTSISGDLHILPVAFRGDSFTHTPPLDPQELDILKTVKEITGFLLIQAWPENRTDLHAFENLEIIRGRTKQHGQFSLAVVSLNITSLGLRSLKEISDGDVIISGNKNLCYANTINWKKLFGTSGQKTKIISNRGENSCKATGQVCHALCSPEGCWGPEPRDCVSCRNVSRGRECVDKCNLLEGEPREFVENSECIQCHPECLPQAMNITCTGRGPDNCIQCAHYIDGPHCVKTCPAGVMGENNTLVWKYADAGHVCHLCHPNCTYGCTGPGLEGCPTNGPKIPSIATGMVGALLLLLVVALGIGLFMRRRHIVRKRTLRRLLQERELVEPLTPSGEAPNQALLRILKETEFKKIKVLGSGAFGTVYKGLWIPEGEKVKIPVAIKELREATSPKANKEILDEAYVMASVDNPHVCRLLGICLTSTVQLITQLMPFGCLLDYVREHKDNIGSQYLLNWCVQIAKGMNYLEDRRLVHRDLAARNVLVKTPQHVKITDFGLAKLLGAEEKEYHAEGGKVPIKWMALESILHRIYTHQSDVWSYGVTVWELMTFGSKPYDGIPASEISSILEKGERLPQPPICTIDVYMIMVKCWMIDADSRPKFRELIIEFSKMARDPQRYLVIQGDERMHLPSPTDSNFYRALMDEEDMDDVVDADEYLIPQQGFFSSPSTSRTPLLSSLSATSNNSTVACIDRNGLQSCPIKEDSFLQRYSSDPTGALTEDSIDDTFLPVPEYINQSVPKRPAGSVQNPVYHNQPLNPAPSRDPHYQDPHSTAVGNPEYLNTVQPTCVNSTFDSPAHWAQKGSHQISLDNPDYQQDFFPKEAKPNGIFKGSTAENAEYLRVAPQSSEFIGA
T2 sequence (P04626 23-1255): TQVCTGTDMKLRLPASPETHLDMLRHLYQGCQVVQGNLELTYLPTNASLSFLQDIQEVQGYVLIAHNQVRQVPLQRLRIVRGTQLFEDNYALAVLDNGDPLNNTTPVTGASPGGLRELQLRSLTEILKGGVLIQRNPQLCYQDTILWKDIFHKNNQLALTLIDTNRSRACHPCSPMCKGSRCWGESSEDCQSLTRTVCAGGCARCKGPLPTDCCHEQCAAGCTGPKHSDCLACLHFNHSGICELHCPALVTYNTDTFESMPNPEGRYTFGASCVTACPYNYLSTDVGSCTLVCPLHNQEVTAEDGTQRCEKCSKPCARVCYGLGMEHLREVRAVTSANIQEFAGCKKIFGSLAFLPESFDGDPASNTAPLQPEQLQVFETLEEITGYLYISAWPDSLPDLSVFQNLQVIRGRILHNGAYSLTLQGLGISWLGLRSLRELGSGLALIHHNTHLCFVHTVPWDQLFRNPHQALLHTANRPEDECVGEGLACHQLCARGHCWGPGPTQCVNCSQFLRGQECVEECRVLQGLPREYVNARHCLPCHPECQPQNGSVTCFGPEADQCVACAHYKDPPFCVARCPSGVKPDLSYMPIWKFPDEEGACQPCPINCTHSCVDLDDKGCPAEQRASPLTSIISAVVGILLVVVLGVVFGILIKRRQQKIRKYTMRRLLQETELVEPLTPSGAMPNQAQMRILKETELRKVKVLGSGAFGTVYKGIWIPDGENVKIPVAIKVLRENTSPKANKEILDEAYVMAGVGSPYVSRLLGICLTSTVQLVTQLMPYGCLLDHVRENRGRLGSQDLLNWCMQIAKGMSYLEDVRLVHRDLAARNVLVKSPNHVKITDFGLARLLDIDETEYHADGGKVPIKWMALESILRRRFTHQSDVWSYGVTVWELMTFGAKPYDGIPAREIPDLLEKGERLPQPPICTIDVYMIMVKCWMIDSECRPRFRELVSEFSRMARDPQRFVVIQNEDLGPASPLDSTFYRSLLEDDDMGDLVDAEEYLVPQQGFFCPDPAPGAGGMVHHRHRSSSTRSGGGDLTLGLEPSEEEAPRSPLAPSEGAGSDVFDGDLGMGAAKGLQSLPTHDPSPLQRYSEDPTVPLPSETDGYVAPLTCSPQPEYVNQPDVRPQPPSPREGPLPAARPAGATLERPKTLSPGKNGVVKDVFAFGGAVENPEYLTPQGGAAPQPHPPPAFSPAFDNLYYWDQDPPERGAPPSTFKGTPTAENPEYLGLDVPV

For orientation: IC50 means the concentration that gives 50% inhibition. With `C=CC(=O)N1CCN(c2cc3c(Nc4ccc(O[C@@H]5CCCOC5)c(C)c4)ncnc3cn2)CC1` [Compound 100, 1-{4-[4-({3-methyl-4-[(3R)-oxan-3-yloxy]phenyl}amino)pyrido[3,4-d]pyrimidin-6-yl]piperazin-1-yl}prop-2-en-1-one], the IC50 was found to be 337 nM in experiment [1] and 63.7 nM in experiment [2]. In experiment [3], the GI50 was found to be 98.5 nM.
As to `C=CC(=O)N1CCN(c2ccc3ncnc(Nc4ccc(CN5CCn6ncnc6C5)c(C)c4)c3c2)CC1` [Compound 101, 1-(4-{4-[(3-methyl-4-{5H,6H,8H-[1,2,4]triazolo[1,5-a]pyrazin-7-ylmethyl}phenyl)amino]quinazolin-6-yl}piperazin-1-yl)prop-2-en-1-one], the figures for the 50% inhibitory concentration (IC50) in experiment [1] and in experiment [2] were above 10000 nM and 99 nM, respectively. For the same compound, the GI50 in experiment [3] is above 500 nM.
Consider `C=CC(=O)N1CCN(c2ccc3ncnc(Nc4ccc(O[C@@H]5CCCOC5)c(C)c4)c3c2)CC1` [Compound 102, 1-{4-[4-({3-methyl-4-[(3R)-oxan-3-yloxy]phenyl}amino)quinazolin-6-yl]piperazin-1-yl}prop-2-en-1-one], for which the figures for the half-inhibitory concentration (IC50) in experiment [1] and in experiment [2] were 244 nM and 47.6 nM, respectively. In addition, in experiment [3], the GI50 stood at 43.9 nM.
The like results for `C=CC(=O)N1CCN(c2cc3c(Nc4ccc(Cc5ccn6ncnc6c5)c(C)c4)ncnc3cn2)CC1` [Compound 103, 1-(4-(4-((4-([1,2,4]triazolo[1,5-a]pyridin-7-ylmethyl)-3-methylphenyl)amino)pyrido[3,4-d]pyrimidin-6-yl)piperazin-1-yl)prop-2-en-1-one] were, in that order, 2770 nM, 16 nM and 24.9 nM.
As for `C=CC(=O)N1CCN(c2ccc3ncnc(Nc4ccc(Cc5ccn6ncnc6c5)c(C)c4)c3c2)[C@@H](C)C1` [Compound 104, (S)-1-(4-(4-((4-([1,2,4]triazolo[1,5-a]pyridin-7-ylmethyl)-3-methylphenyl)amino)quinazolin-6-yl)-3-methylpiperazin-1-yl)prop-2-en-1-one], the IC50 in experiment [1] was above 10000 nM; in experiment [2], 24.7 nM. Moreover, the GI50 in experiment [3] was 65.1 nM.
For `Cc1cc(Nc2ncnc3ccc(N4CCN(C(=O)/C=C/CN(C)C)C[C@@H]4C)nc23)ccc1Cc1ccn2ncnc2c1` [Compound 105, (2E)-4-(dimethylamino)-1-[(3S)-3-methyl-4-{4-[(3-methyl-4-{[1,2,4]triazolo[1,5-a]pyridin-7-ylmethyl}phenyl)amino]pyrido[3,2-d]pyrimidin-6-yl}piperazin-1-yl]but-2-en-1-one], in that order: above 10000 nM, 43.9 nM and 145 nM.
Turning to `C=CC(=O)N1CCN(c2cc3c(Nc4ccc(Oc5ccc6c(c5)ncn6C)c(C)c4)ncnc3cn2)CC1` [Compound 106, 1-{4-[4-({3-methyl-4-[(1-methyl-1,3-benzodiazol-5-yl)oxy]phenyl}amino)pyrido[3,4-d]pyrimidin-6-yl]piperazin-1-yl}prop-2-en-1-one formic acid], the IC50 in experiment [1] was determined as 1060 nM; in experiment [2], 18.1 nM. In experiment [3], the GI50 is 10.3 nM.
The like results for `C=CC(=O)N1CCN(c2cc3c(Nc4ccc(Oc5ccc6c(c5)ncn6C)c(C)c4)ncnc3cn2)[C@@H](C)C1` [Compound 107, 1-[(3S)-3-methyl-4-[4-({3-methyl-4-[(1-methyl-1,3-benzodiazol-5-yl)oxy]phenyl}amino)pyrido[3,4-d]pyrimidin-6-yl]piperazin-1-yl]prop-2-en-1-one] were, in that order, 2880 nM, 21.8 nM and 73.4 nM.
As for `C=CC(=O)N1CCN(c2ccc3ncnc(Nc4ccc(Oc5ccn6ncnc6c5)c(C)c4)c3n2)CC1(C)C` [Compound 108, 1-(4-(4-((4-([1,2,4]triazolo[1,5-a]pyridin-7-yloxy)-3-methylphenyl)amino)pyrido[3,2-d]pyrimidin-6-yl)-2,2-dimethylpiperazin-1-yl)prop-2-en-1-one], the IC50 in experiment [1] was 695 nM; in experiment [2], 10 nM. Also, in experiment [3], the GI50 stood at 10.9 nM.
For `C=CC(=O)N1CCN(c2cc3c(Nc4ccc(Oc5ccn6ncnc6c5)c(C)c4)ncnc3cn2)CC1` [Compound 109, 1-(4-(4-((4-([1,2,4]triazolo[1,5-a]pyridin-7-yloxy)-3-methylphenyl)amino)pyrido[3,4-d]pyrimidin-6-yl)piperazin-1-yl)prop-2-en-1-one], in that order: 839 nM, 10.2 nM and 13.4 nM.
Take `C=CC(=O)N1CCN(c2ccc3ncnc(Nc4ccc(Cc5ccn6ncnc6c5)c(C)c4)c3n2)CC1` [Compound 110, 1-(4-(4-((4-([1,2,4]triazolo[1,5-a]pyridin-7-ylmethyl)-3-methylphenyl)amino)pyrido[3,2-d]pyrimidin-6-yl)piperazin-1-yl)prop-2-en-1-one]: the IC50 in experiment [1] was 3070 nM; in experiment [2] it was 9.86 nM. The GI50 in experiment [3] was determined as 13.3 nM.
With `C=CC(=O)N1CCN(c2ncc3ncnc(Nc4ccc(Cc5ccn6ncnc6c5)c(C)c4)c3n2)C[C@H]1C` [Compound 111, (R)-1-(4-(8-((4-([1,2,4]triazolo[1,5-a]pyridin-7-ylmethyl)-3-methylphenyl)amino)pyrimido[5,4-d]pyrimidin-2-yl)-2-methylpiperazin-1-yl)prop-2-en-1-one], the IC50 amounted to 5460 nM in experiment [1] and 28.1 nM in experiment [2]. For the same compound, in experiment [3], the GI50 was 22.7 nM.
For `C=CC(=O)N1CCN(c2ccc3ncnc(Nc4ccc(Cc5ccn6ncnc6c5)c(C)c4)c3c2)C[C@H]1C` [Compound 112, (R)-1-(4-(4-((4-([1,2,4]triazolo[1,5-a]pyridin-7-ylmethyl)-3-methylphenyl)amino)quinazolin-6-yl)-2-methylpiperazin-1-yl)prop-2-en-1-one], in that order: above 10000 nM, 33.1 nM and 28 nM.
Regarding `C=CC(=O)N1CCN(c2ncc3ncnc(Nc4ccc(Cc5ccn6ncnc6c5)c(C)c4)c3n2)[C@@H](C)C1` [Compound 113, 1-[(3S)-3-methyl-4-{8-[(3-methyl-4-{[1,2,4]triazolo[1,5-a]pyridin-7-ylmethyl}phenyl)amino]pyrimido[5,4-d][1,3]diazin-2-yl}piperazin-1-yl]prop-2-en-1-one], the results for the IC50 in experiment [1] and in experiment [2] were above 10000 nM and 31.9 nM, respectively. Moreover, the GI50 in experiment [3] was 8.87 nM.
For `C=CC(=O)N1CCN(c2ccc3ncnc(Nc4ccc(Oc5ccn6ncnc6c5)c(C)c4)c3c2F)C(C)C1` (stereo not drawn) [Compound 114, 1-(4-{5-fluoro-4-[(3-methyl-4-{[1,2,4]triazolo[1,5-a]pyridin-7-yloxy}phenyl)amino]quinazolin-6-yl}-3-methylpiperazin-1-yl)prop-2-en-1-one], in that order: above 10000 nM, 45.9 nM and 53.9 nM.
For `C=CC(=O)N1CCN(c2ncc3ncnc(Nc4ccc(Cc5ccn6ncnc6c5)c(C)c4)c3n2)CC1` [Compound 115, 1-(4-(8-((4-([1,2,4]triazolo[1,5-a]pyridin-7-ylmethyl)-3-methylphenyl)amino)pyrimido[5,4-d]pyrimidin-2-yl)piperazin-1-yl)prop-2-en-1-one], in that order: 4290 nM, 16.9 nM and 9.29 nM.
For `Cc1cc(Nc2ncnc3ccc(N4CCN(C(=O)/C=C/CN(C)C)[C@H](C)C4)nc23)ccc1Oc1ccn2ncnc2c1` [Compound 116, (R,E)-1-(4-(4-((4-([1,2,4]triazolo[1,5-a]pyridin-7-yloxy)-3-methylphenyl)amino)pyrido[3,2-d]pyrimidin-6-yl)-2-methylpiperazin-1-yl)-4-(dimethylamino)but-2-en-1-one], the IC50 in experiment [1] worked out at 1790 nM; in experiment [2] it was 21.9 nM. Also, the GI50 in experiment [3] is 10.1 nM.
As to `Cc1cc(Nc2ncnc3ccc(N4CCN(C(=O)/C=C/CN(C)C)[C@H](C)C4)nc23)ccc1Cc1ccn2ncnc2c1` [Compound 117, (R,E)-1-(4-(4-((4-([1,2,4]triazolo[1,5-a]pyridin-7-ylmethyl)-3-methylphenyl)amino)pyrido[3,2-d]pyrimidin-6-yl)-2-methylpiperazin-1-yl)-4-(dimethylamino)but-2-en-1-one], the IC50 in experiment [1] was above 10000 nM; in experiment [2], 24.5 nM. For the same compound, the GI50 in experiment [3] is 25.1 nM.
For `C=CC(=O)N1CCN(c2ccc3ncnc(Nc4ccc(Oc5ccn6ncnc6c5)c(C)c4)c3n2)CC12CC2` [Compound 118, 1-(7-{4-[(3-methyl-4-{[1,2,4]triazolo[1,5-a]pyridin-7-yloxy}phenyl)amino]pyrido[3,2-d]pyrimidin-6-yl}-4,7-diazaspiro[2.5]octan-4-yl)prop-2-en-1-one], in that order: 107 nM, 11.5 nM and 7.76 nM.
As to `C=CC(=O)N1CCN(c2ccc3ncnc(Nc4ccc(Oc5ccc6scnc6c5)c(C)c4)c3n2)CC1` [Compound 119, 1-(4-(4-((4-(benzo[d]thiazol-5-yloxy)-3-methylphenyl)amino)pyrido[3,2-d]pyrimidin-6-yl)piperazin-1-yl)prop-2-en-1-one], the values for the IC50 in experiment [1] and in experiment [2] were 97 nM and 26 nM, respectively. In addition, in experiment [3], the GI50 came out at 4.67 nM.
